Assays:
[1] = target: T1, STK3 Catalytic domain+SARAH (Homo sapiens, UniProt Q13188); test: Caliper mobility shift kinase activity assay; format: biochemical; conditions: STK3 CD+SARAH; read-out: ATP Km
T1 construct: for 8, we also made a longer version containing one or more additional domains; His-tag; made in house; host or cells: Escherichia coli
T1 sequence (Q13188 1-491): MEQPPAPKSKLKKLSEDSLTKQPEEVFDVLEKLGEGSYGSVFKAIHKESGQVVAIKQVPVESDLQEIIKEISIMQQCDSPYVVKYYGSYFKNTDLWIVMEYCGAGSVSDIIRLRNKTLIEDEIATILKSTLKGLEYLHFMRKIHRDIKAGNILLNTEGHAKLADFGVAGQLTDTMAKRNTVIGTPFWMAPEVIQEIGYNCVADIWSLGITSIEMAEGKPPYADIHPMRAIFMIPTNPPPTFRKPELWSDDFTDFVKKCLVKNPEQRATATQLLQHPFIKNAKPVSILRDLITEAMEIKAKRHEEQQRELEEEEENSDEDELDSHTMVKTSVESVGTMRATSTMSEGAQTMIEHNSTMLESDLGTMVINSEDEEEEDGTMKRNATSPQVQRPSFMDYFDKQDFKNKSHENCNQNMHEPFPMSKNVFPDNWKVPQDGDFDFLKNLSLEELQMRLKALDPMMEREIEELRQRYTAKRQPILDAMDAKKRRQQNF

DMPK Catalytic Domain [2] = target: T2, DMPK Catalytic Domain (Homo sapiens, UniProt Q09013); test: Caliper mobility shift kinase activity assay; format: biochemical; conditions: DMPK CD; read-out: ATP Km
T2 construct: For all of them, we expressed and purified the catalytic domain separately; His-tag; made in house; host or cells: Escherichia coli
T2 sequence (Q09013 71-339 limits assumed): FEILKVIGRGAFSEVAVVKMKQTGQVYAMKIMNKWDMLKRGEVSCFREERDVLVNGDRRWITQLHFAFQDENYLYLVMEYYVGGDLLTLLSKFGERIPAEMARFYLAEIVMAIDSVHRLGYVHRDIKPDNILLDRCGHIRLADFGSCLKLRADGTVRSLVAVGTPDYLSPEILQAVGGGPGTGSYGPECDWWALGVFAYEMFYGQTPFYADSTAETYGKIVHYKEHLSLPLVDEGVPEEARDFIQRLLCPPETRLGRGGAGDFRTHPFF

PAK7 Catalytic Domain [3] = target: T3, PAK7 Catalytic Domain (Homo sapiens, UniProt Q9P286); test: Caliper mobility shift kinase activity assay; format: biochemical; conditions: PAK7 CD; read-out: ATP Km
T3 construct: For all of them, we expressed and purified the catalytic domain separately; His-tag; made in house; host or cells: Escherichia coli

PAK4 Catalytic Domain [4] = target: T4, PAK4 Catalytic Domain (Homo sapiens, UniProt O96013); test: Caliper mobility shift kinase activity assay; format: biochemical; conditions: PAK4 CD; read-out: ATP Km
T4 construct: For all of them, we expressed and purified the catalytic domain separately; His-tag; made in house; host or cells: Escherichia coli
Protocol: (§1) This ensures comparability of compound potency between the kinases. […] […].
(§2) […]. […] […].
(§3) IC50 was determined once for each compound-kinase combination.

[5] = target: T5, PAK4 Catalytic Domain+PBD (Homo sapiens, UniProt O96013); test: Caliper mobility shift kinase activity assay; format: biochemical; conditions: PAK4 CD+PBD; read-out: ATP Km
T5 construct: for 8, we also made a longer version containing one or more additional domains; His-tag; made in house; host or cells: Escherichia coli
Protocol: as §1, §2, §3

[6] = target: T6, SRC Catalytic Domain+SH2+SH3 (Homo sapiens, UniProt P12931); conditions: read-out: ATP Km; SRC CD+SH2/3
FES Catalytic Domain+SH2 [7] = target: T7, FES Catalytic Domain+SH2 (Homo sapiens, UniProt P07332); test: Caliper mobility shift kinase activity assay; format: biochemical; conditions: FES CD+SH2; read-out: ATP Km
T7 construct: for 8, we also made a longer version containing one or more additional domains; His-tag; made in house; host or cells: Escherichia coli

CHK2 Catalytic Domain [8] = target: T8, CHK2 Catalytic Domain (Homo sapiens, UniProt O96017); test: Caliper mobility shift kinase activity assay; format: biochemical; conditions: CHK2 CD; read-out: ATP Km
T8 construct: For all of them, we expressed and purified the catalytic domain separately; His-tag; made in house; host or cells: Escherichia coli

CDK2 + Cyclin A [9] = target: T9, CDK2 + Cyclin A (Homo sapiens, UniProt P24941); test: Caliper mobility shift kinase activity assay; format: biochemical; conditions: CDK2 with CCNA2 (Cyclin A); read-out: ATP Km
T9 construct: CDK2 (P24941); 1–299; His-tag; made in house; host or cells: Escherichia coli

CDK2 + Cyclin E [10] = target: T10, CDK2 + Cyclin E (Homo sapiens, UniProt P24941); test: Caliper mobility shift kinase activity assay; format: biochemical; conditions: CDK2 with CCNE1 (Cyclin E); read-out: ATP Km
T10 construct: CDK2 (P24941); 1–299; His-tag; made in house; host or cells: Escherichia coli

SRC Catalytic Domain [11] = target: T11, SRC Catalytic Domain (Homo sapiens, UniProt P12931); conditions: read-out: ATP Km; SRC CD
AKT3 Catalytic Domain [12] = target: T12, AKT3 Catalytic Domain (Homo sapiens, UniProt Q9Y243); test: Caliper mobility shift kinase activity assay; format: biochemical; conditions: AKT3 CD (122–479); read-out: ATP Km
T12 construct: AKT3 (Q9Y243); CD; His-tag; made in house; host or cells: Escherichia coli

FES Catalytic Domain [13] = target: T13, FES Catalytic Domain (Homo sapiens, UniProt P07332); test: Caliper mobility shift kinase activity assay; format: biochemical; conditions: FES CD; read-out: ATP Km
T13 construct: For all of them, we expressed and purified the catalytic domain separately; His-tag; made in house; host or cells: Escherichia coli

STK3 Catalytic Domain [14] = target: T14, STK3 Catalytic Domain (Homo sapiens, UniProt Q13188); test: Caliper mobility shift kinase activity assay; format: biochemical; conditions: STK3 CD; read-out: ATP Km
T14 construct: For all of them, we expressed and purified the catalytic domain separately; His-tag; made in house; host or cells: Escherichia coli
T14 sequence (Q13188 27-278 limits assumed): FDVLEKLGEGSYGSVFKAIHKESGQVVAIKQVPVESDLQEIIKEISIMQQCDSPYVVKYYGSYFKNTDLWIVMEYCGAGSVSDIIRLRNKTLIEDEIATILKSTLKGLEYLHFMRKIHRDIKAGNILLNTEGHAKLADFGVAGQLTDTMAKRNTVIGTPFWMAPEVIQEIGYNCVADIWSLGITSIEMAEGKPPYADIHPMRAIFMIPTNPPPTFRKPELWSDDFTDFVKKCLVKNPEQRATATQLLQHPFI

CHK2 Catalytic Domain [15] = target: T8, CHK2 Catalytic Domain; test: Differential Scanning Fluorimetry (DSF) Tm shift; format: binding; conditions: 2 µM protein, 10 µM inhibitor, average of 3 experiments, each in duplicate
STK3 Catalytic Domain [16] = target: T14, STK3 Catalytic Domain; test: Differential Scanning Fluorimetry (DSF) Tm shift; format: binding; conditions: 2 µM protein, 10 µM inhibitor, average of 3 experiments, each in duplicate
PAK4 Catalytic Domain [17] = target: T4, PAK4 Catalytic Domain; test: Differential Scanning Fluorimetry (DSF) Tm shift; format: binding; conditions: 2 µM protein, 10 µM inhibitor, average of 3 experiments, each in duplicate
CDK2 + Cyclin E [18] = target: T10, CDK2 + Cyclin E; test: Differential Scanning Fluorimetry (DSF) Tm shift; format: binding; conditions: CDK2 + Cyclin E; 2 µM protein, 10 µM inhibitor; average of 3 experiments, each in duplicate
DMPK Catalytic Domain [19] = target: T2, DMPK Catalytic Domain; test: Differential Scanning Fluorimetry (DSF) Tm shift; format: binding; conditions: 2 µM protein, 10 µM inhibitor, average of 3 experiments, each in duplicate
[20] = target: T1, STK3 Catalytic domain+SARAH; test: Differential Scanning Fluorimetry (DSF) Tm shift; format: binding; conditions: 2 µM protein, 10 µM inhibitor, average of 3 experiments, each in duplicate
FES Catalytic Domain [21] = target: T13, FES Catalytic Domain; test: Differential Scanning Fluorimetry (DSF) Tm shift; format: binding; conditions: 2 µM protein, 10 µM inhibitor, average of 3 experiments, each in duplicate
FAK2 Catalytic Domain = target: T15, FAK2 Catalytic Domain (Homo sapiens, UniProt Q14289); test: Differential Scanning Fluorimetry (DSF) Tm shift; format: binding; conditions: 2 µM protein, 10 µM inhibitor, average of 3 experiments, each in duplicate
T15 construct: For all of them, we expressed and purified the catalytic domain separately; His-tag; made in house; host or cells: Escherichia coli

SRC Catalytic Domain [22] = target: T11, SRC Catalytic Domain; test: Differential Scanning Fluorimetry (DSF) Tm shift; format: binding; set-up: For all of them, we expressed and purified the catalytic domain separately; His-tag; made in house; host or cells: Escherichia coli; conditions: 2 µM protein, 10 µM inhibitor, average of 3 experiments, each in duplicate
CDK2 + Cyclin A [23] = target: T9, CDK2 + Cyclin A; test: Differential Scanning Fluorimetry (DSF) Tm shift; format: binding; conditions: CDK2 + Cyclin A; 2 µM protein, 10 µM inhibitor; average of 3 experiments, each in duplicate
PAK7 Catalytic Domain [24] = target: T3, PAK7 Catalytic Domain; test: Differential Scanning Fluorimetry (DSF) Tm shift; format: binding; conditions: 2 µM protein, 10 µM inhibitor, average of 3 experiments, each in duplicate
FES Catalytic Domain+SH2 [25] = target: T7, FES Catalytic Domain+SH2; test: Differential Scanning Fluorimetry (DSF) Tm shift; format: binding; conditions: 2 µM protein, 10 µM inhibitor, average of 3 experiments, each in duplicate
[26] = target: T5, PAK4 Catalytic Domain+PBD; test: Differential Scanning Fluorimetry (DSF) Tm shift; format: binding; conditions: 2 µM protein, 10 µM inhibitor, average of 3 experiments, each in duplicate
[27] = target: T6, SRC Catalytic Domain+SH2+SH3; test: Differential Scanning Fluorimetry (DSF) Tm shift; format: binding; conditions: 2 µM protein, 10 µM inhibitor, average of 3 experiments, each in duplicate
AKT3 Catalytic Domain [28] = target: T12, AKT3 Catalytic Domain; test: Differential Scanning Fluorimetry (DSF) Tm shift; format: binding; conditions: 2 µM protein, 10 µM inhibitor, average of 3 experiments, each in duplicate

T3 sequence (Q9P286 449-700 limits assumed): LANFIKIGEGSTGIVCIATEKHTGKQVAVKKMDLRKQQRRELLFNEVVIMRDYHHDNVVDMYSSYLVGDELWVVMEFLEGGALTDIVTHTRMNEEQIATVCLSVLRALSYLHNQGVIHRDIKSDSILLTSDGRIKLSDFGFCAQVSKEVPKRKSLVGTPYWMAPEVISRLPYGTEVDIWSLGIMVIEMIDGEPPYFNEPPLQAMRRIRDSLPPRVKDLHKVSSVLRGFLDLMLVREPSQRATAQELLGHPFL
T8 sequence (O96017 220-486 limits assumed): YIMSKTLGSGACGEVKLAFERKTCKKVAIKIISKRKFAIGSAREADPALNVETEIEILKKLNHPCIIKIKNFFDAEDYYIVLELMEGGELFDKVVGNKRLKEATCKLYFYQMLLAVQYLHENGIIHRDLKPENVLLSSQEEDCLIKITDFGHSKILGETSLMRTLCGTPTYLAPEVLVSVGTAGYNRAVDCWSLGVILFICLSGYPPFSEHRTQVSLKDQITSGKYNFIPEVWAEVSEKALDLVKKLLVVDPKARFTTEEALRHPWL
T12 sequence (Q9Y243 122-479): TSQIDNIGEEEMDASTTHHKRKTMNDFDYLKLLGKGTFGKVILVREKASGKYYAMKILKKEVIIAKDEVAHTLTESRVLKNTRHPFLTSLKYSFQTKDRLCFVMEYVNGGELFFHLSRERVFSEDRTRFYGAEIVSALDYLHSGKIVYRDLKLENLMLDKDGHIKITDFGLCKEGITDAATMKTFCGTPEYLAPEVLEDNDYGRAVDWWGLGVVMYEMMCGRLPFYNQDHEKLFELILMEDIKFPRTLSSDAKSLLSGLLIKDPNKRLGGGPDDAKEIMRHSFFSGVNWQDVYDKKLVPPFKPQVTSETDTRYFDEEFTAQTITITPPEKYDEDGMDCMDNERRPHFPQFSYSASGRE
T4 sequence (O96013 321-572 limits assumed): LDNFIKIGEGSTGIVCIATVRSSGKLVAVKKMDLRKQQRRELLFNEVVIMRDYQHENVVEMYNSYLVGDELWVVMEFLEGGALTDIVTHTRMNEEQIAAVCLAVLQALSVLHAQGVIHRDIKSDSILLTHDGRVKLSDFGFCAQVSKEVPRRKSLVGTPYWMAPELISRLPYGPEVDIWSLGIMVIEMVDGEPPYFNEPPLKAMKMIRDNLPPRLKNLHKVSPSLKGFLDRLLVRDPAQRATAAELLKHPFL
T13 sequence (P07332 561-822 limits assumed): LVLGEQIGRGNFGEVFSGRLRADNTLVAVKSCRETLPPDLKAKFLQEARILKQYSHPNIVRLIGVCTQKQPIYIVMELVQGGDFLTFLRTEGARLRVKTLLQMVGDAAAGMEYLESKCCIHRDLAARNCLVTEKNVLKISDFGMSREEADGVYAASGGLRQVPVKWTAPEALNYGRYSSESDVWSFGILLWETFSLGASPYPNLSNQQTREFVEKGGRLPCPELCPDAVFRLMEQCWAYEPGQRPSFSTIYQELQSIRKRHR
T5 sequence (O96013 whole entry, the tested form may be a part): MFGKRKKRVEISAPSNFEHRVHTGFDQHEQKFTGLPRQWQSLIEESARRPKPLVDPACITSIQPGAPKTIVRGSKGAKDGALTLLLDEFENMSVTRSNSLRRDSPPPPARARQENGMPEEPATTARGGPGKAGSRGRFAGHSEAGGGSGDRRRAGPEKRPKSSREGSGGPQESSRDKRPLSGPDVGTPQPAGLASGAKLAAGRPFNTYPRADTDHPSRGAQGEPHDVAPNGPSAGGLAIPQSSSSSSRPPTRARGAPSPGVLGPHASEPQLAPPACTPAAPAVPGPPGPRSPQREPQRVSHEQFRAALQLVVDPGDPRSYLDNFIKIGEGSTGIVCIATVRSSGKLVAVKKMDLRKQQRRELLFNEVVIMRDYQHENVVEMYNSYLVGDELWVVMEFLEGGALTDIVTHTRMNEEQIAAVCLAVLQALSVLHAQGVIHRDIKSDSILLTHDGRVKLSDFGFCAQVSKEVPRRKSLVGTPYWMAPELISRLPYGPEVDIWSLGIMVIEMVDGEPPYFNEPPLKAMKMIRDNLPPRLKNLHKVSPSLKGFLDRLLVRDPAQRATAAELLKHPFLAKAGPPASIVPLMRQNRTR
T7 sequence (P07332 448-822 limits assumed): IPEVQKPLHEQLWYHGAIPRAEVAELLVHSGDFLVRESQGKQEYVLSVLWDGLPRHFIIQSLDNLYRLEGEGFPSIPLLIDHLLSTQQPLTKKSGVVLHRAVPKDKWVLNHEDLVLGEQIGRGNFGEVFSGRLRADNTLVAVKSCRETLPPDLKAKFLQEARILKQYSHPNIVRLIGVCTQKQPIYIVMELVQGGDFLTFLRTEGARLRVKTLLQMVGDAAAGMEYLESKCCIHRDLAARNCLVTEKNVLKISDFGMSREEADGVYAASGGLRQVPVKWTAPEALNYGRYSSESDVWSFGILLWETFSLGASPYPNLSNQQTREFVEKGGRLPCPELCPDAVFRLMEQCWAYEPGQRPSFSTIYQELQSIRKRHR
T15 sequence (Q14289 425-683 limits assumed): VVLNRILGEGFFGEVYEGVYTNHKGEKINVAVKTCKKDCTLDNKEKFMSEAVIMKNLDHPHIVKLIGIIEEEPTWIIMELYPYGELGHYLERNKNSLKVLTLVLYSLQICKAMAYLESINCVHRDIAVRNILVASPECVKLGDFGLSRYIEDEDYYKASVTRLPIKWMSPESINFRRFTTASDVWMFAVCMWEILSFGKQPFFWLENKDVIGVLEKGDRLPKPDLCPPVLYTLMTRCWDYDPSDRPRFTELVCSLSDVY

Structure (SMILES) | Melting temperature (Tm) shift (CHK2 Catalytic Domain [15]) | Melting temperature (Tm) shift (STK3 Catalytic Domain [16]) | Melting temperature (Tm) shift (PAK4 Catalytic Domain [17]) | Melting temperature (Tm) shift (CDK2 + Cyclin E [18]) | Melting temperature (Tm) shift (DMPK Catalytic Domain [19]) | Melting temperature (Tm) shift [20] | Melting temperature (Tm) shift (FES Catalytic Domain [21]) | Melting temperature (Tm) shift (FAK2 Catalytic Domain) | Melting temperature (Tm) shift (SRC Catalytic Domain [22]) | Melting temperature (Tm) shift (CDK2 + Cyclin A [23]) | Melting temperature (Tm) shift (PAK7 Catalytic Domain [24]) | Melting temperature (Tm) shift (FES Catalytic Domain+SH2 [25]) | Melting temperature (Tm) shift [26] | Melting temperature (Tm) shift [27] | Melting temperature (Tm) shift (AKT3 Catalytic Domain [28]) | also measured
Nc1ncnc2c1ncn2[C@@H]1O[C@H](COP(=O)(O)OP(=O)(O)OP(=O)(O)O)[C@@H](O)[C@H]1O [ATP] | – | – | – | – | – | – | – | – | – | – | – | – | – | – | – | Km [1]: 66 ± 2 µM; Km (DMPK Catalytic Domain [2]): 470 ± 69 µM; Km (PAK7 Catalytic Domain [3]): 5 ± 0.4 µM; Km (PAK4 Catalytic Domain [4]): 11 ± 1 µM; Km [5]: 11 ± 1 µM; Km [6]: 226 ± 33 µM; Km (FES Catalytic Domain+SH2 [7]): 53 ± 13 µM; Km (CHK2 Catalytic Domain [8]): 130 ± 13 µM; Km (CDK2 + Cyclin A [9]): 238 ± 12 µM; Km (CDK2 + Cyclin E [10]): 145 ± 4 µM; Km (SRC Catalytic Domain [11]): 134 ± 16 µM; Km (AKT3 Catalytic Domain [12]): 564 ± 36 µM; Km (FES Catalytic Domain [13]): 49 ± 11 µM; Km (STK3 Catalytic Domain [14]): 140 ± 12 µM
Nc1cccc(-c2cc3c(Oc4cccc(O)c4)ncnc3[nH]2)c1 [GSK3b Inhibitor XII, TWS119] | 2.1 degrees Celcius | 0.3 degrees Celcius | 1.3 degrees Celcius | 0.2 degrees Celcius | 1.2 degrees Celcius | 0.5 degrees Celcius | 4.1 degrees Celcius | 1.5 degrees Celcius | 2.6 degrees Celcius | 0.7 degrees Celcius | 1.1 degrees Celcius | 2.0 degrees Celcius | 1.5 degrees Celcius | 3.1 degrees Celcius | 0.1 degrees Celcius | –
Cl.Cl.NCCNc1ncc(C(N)=O)c(Nc2cccc(C(F)(F)F)c2)n1 [Syk Inhibitor II] | 4.7 degrees Celcius | 1.6 degrees Celcius | 4.7 degrees Celcius | 0.6 degrees Celcius | 0.7 degrees Celcius | 1.3 degrees Celcius | 3.1 degrees Celcius | 1.9 degrees Celcius | 0.1 degrees Celcius | 0.5 degrees Celcius | 5.1 degrees Celcius | 1.3 degrees Celcius | 4.8 degrees Celcius | 0.4 degrees Celcius | 0.0 degrees Celcius | –
